# Patent US7122693B2, “Acetaldehyde acetal compounds, their synthesis, and uses thereof” (Shire BioChem Inc., priority 1988, dated 2006)
# Values joined by “and” are separate entries in the source; they are usually repeats but may differ in a detail not shown here. Equal values may be shown once. Read-outs that look alike come from different tables or passages of the source.
# What was measured:
# Type in all cases: cell-based
# HIV-1 in MT-4 cells [1] = test: Viable cell counts, cytolytic effect of HIV-1 on MT-4 cells; details: for viability at 2 µg/mL: Human immunodeficiency virus 1, MT4, 144 h
# Description: (§1) In vitro testing was conducted on several of the compounds of this invention to determine their inhibitory properties. The concentrations reported are μg/ml in the incubation media which affect the susceptibility of a continuous line of T-cells developed at the Lady Davis Institute for Medical Research (Montreal) by Dr. Mark A. Wainberg toward infection by HIV-1 following a protocol similar to that of H. Mitsuya and S. Broder, “Inhibition of the in vitro infectivity and cytopathic effect of human T-lymphotropic virus type III/lymphadenopathy-associated virus (HTLV-III/LAV) by 2′3′-dideoxynucleosides”, Proc. Natl. Acad. Sci. USA, 83, pp. 1911–15 (1986). Protection of the cell line from infection was monitored by staining with monoclonal antibodies against viral proteins in the standard manner (Table 1). In all experiments, comparisons were made with the drug AZT as the control. In order to confirm the results, the drug effects were monitored by measuring reverse transcriptase (RT) activity in the U-937 line of human monocytic cells as assayed in the usual manner with tritiated thymidine triphosphate (TTP) (Table 2). The drug effects on cell viability as measured by the well-know cytolytic effects of HIV-1 on the MT-4 cell line was evaluated in the accepted manner (Table 1).
# HIV-1 in H-9 cells [2] = test: RT activity, HIV-1 production in H-9 cells (Table 3)
# HIV-1 in MT-4 cells [3] = test: Reverse transcriptase assay in MT-4 cells; details: 2 μg/ml
# HIV-1 in MT-4 cells [4] = test: P-24 immunofluorescence in MT-4 cells (staining with monoclonal antibodies against viral proteins); details: 2 μg/ml
# Description: as §1
# HIV-1 in H-9 cells [5] = test: Reverse transcriptase assay, HIV-1 production in H-9 cells (Table 2); details: 2 μg/ml
# [6] = MT-4 cells, HIV-1, 6 days in culture, 2 μg/ml of compound, read-out: Cell Viability %
# [7] = MT-4 cells, HIV-1, 6 days in culture, 2 μg/ml of compound
# [8] = 7 days in culture (row between 14 and 21)
structure (smiles),measurement,setting,value
"O=c1ccn(C2CSC(CO)O2)c(=O)[nH]1 (stereo not drawn) [cis-XVIII, Cis-2-hydroxymethyl-5-(uracil-N-1′-yl)-1,3-oxathiolane]",viability at 2 µg/mL,HIV-1 in MT-4 cells [1]; [6],14%
"Nc1ccn(C2COC(CO)O2)c(=O)n1 (stereo not drawn) [trans-(XXXVI), trans-2-hydromethyl-4-(cytosin-1′-yl)-1,3-dioxolane]",RT activity (cpm) after 8 days,HIV-1 in H-9 cells [2]; inhibitor 10 μM,"4,608 cpm"
same,RT activity (cpm) after 12 days,HIV-1 in H-9 cells [2]; inhibitor 10 μM,"83,462 cpm"
same,RT activity (cpm) after 26 days,HIV-1 in H-9 cells [2]; inhibitor 10 μM,"312,478 cpm"
same,RT activity (cpm) after 8 days,HIV-1 in H-9 cells [2]; inhibitor 50 μM,"1,319 cpm"
same,RT activity (cpm) after 12 days,HIV-1 in H-9 cells [2]; inhibitor 50 μM,758 cpm
same,RT activity (cpm) after 26 days,HIV-1 in H-9 cells [2]; inhibitor 50 μM,"1,732 cpm"
"Nc1ccn(C2CSC(CO)O2)c(=O)n1 (stereo not drawn) [trans-XI, trans-2-hydroxymethyl-5-(cytosin-1′-yl)-1,3-oxathiolane]",Cell Viability %,HIV-1 in MT-4 cells [1]; [7],24%
"O=c1[nH]cnc2c1ncn2C1CSC(CO)O1 (stereo not drawn) [cis-LVI, Cis-2-hydroxymethyl-5-(6′-hydroxypurin-N-9′-yl)-1,3-oxathiolane]",viability at 2 µg/mL,HIV-1 in MT-4 cells [1]; [6],11%
"Nc1ccn(C2C[S+]([O-])C(CO)O2)c(=O)n1 (single isomer, unassigned) [cis-XII (b), Cis-2-hydroxymethyl-5-(cytosin-1′-yl)-3-oxo-1,3-oxathiolane]",viability at 2 µg/mL,HIV-1 in MT-4 cells [1]; [6],14%
"Cc1cn(C2CC(N=[N+]=[N-])C(CO)O2)c(=O)[nH]c1=O (centres unmarked) [AZT, 3′-azido-2′,3′-dideoxythymidine, reference compound]",RT Activity (CPM × 1000)/ml,HIV-1 in MT-4 cells [3]; 3 days in culture,1.564 (CPM × 1000)/ml
same,RT Activity (CPM × 1000)/ml,HIV-1 in MT-4 cells [3]; 6 days in culture,1.748 (CPM × 1000)/ml
same,% Immunofluorescent Cells (P-24),HIV-1 in MT-4 cells [4]; 3 days in culture,1.0%
same,% Immunofluorescent Cells (P-24),HIV-1 in MT-4 cells [4]; 6 days in culture,1.0%
same,RT Activity (CPM × 1000)/ml,HIV-1 in H-9 cells [5]; 5 days in culture,3.346 (CPM × 1000)/ml
same,RT Activity (CPM × 1000)/ml,HIV-1 in H-9 cells [5]; [8],2.997 (CPM × 1000)/ml
same,RT Activity (CPM × 1000)/ml,HIV-1 in H-9 cells [5]; 8 days in culture,3.414 (CPM × 1000)/ml
same,RT Activity (CPM × 1000)/ml,HIV-1 in H-9 cells [5]; 11 days in culture,2.918 (CPM × 1000)/ml
same,RT Activity (CPM × 1000)/ml,HIV-1 in H-9 cells [5]; 14 days in culture,8.320 (CPM × 1000)/ml
same,RT Activity (CPM × 1000)/ml,HIV-1 in H-9 cells [5]; 21 days in culture,3.111 (CPM × 1000)/ml
same,RT Activity (CPM × 1000)/ml,HIV-1 in H-9 cells [5]; 25 days in culture,15.88 (CPM × 1000)/ml
same,RT Activity (CPM × 1000)/ml,HIV-1 in H-9 cells [5]; 29 days in culture,32.08 (CPM × 1000)/ml
same,RT Activity (CPM × 1000)/ml,HIV-1 in H-9 cells [5]; 33 days in culture,612.2 (CPM × 1000)/ml
same,RT Activity (CPM × 1000)/ml,HIV-1 in H-9 cells [5]; 37 days in culture,878.2 (CPM × 1000)/ml
same,RT Activity (CPM × 1000)/ml,HIV-1 in H-9 cells [5]; 41 days in culture,994.0 (CPM × 1000)/ml
same,RT Activity (CPM × 1000)/ml,HIV-1 in H-9 cells [5]; 45 days in culture,32.91 (CPM × 1000)/ml
same,viability at 2 µg/mL,"HIV-1 in MT-4 cells [1]; read-out: Cell Viability %, MT-4 cells, HIV-1, 6 days in culture, 2 μg/ml of compound",88.6%
same,RT activity (cpm) after 8 days,HIV-1 in H-9 cells [2]; inhibitor 20 μM,633 cpm and 587 cpm
same,RT activity (cpm) after 26 days,HIV-1 in H-9 cells [2]; inhibitor 20 μM,821 cpm and 679 cpm
"CN(C)C=Nc1ccn(C2CSC(CO)O2)c(=O)n1 (stereo not drawn) [cis-LIII, Cis-2-hydroxymethyl-5-(N-dimethylaminomethylenecytosin-1′-yl)-1,3-oxathiolane]",viability at 2 µg/mL,HIV-1 in MT-4 cells [1]; [6],18%
"Nc1ccn(C2CSC(CO)O2)c(=O)n1 (stereo not drawn) [cis-XI, Cis-2-hydroxymethyl-5-(cytosin-1′-yl)-1,3-oxathiolane]",RT Activity (CPM × 1000)/ml,HIV-1 in MT-4 cells [3]; 3 days in culture,2.381 (CPM × 1000)/ml
same,RT Activity (CPM × 1000)/ml,HIV-1 in MT-4 cells [3]; 6 days in culture,2.301 (CPM × 1000)/ml
same,% Immunofluorescent Cells (P-24),HIV-1 in MT-4 cells [4]; 3 days in culture,1.0%
same,% Immunofluorescent Cells (P-24),HIV-1 in MT-4 cells [4]; 6 days in culture,7.6%
same,RT Activity (CPM × 1000)/ml,HIV-1 in H-9 cells [5]; 5 days in culture,3.077 (CPM × 1000)/ml
same,RT Activity (CPM × 1000)/ml,HIV-1 in H-9 cells [5]; [8],2.399 (CPM × 1000)/ml
same,RT Activity (CPM × 1000)/ml,HIV-1 in H-9 cells [5]; 8 days in culture,5.853 (CPM × 1000)/ml
same,RT Activity (CPM × 1000)/ml,HIV-1 in H-9 cells [5]; 11 days in culture,3.560 (CPM × 1000)/ml
same,RT Activity (CPM × 1000)/ml,HIV-1 in H-9 cells [5]; 14 days in culture,2.872 (CPM × 1000)/ml
same,RT Activity (CPM × 1000)/ml,HIV-1 in H-9 cells [5]; 21 days in culture,2.907 (CPM × 1000)/ml
same,RT Activity (CPM × 1000)/ml,HIV-1 in H-9 cells [5]; 25 days in culture,4.020 (CPM × 1000)/ml
same,RT Activity (CPM × 1000)/ml,HIV-1 in H-9 cells [5]; 29 days in culture,3.756 (CPM × 1000)/ml
same,RT Activity (CPM × 1000)/ml,HIV-1 in H-9 cells [5]; 33 days in culture,3.803 (CPM × 1000)/ml
same,RT Activity (CPM × 1000)/ml,HIV-1 in H-9 cells [5]; 37 days in culture,4.193 (CPM × 1000)/ml
same,RT Activity (CPM × 1000)/ml,HIV-1 in H-9 cells [5]; 41 days in culture,4.515 (CPM × 1000)/ml
same,RT Activity (CPM × 1000)/ml,HIV-1 in H-9 cells [5]; 45 days in culture,3.441 (CPM × 1000)/ml
same,Cell Viability %,HIV-1 in MT-4 cells [1]; [7],87.4%
